# “Also recorded” adds a separate entry of the source.
# Experiments:
# [1] = test system: cells of the ROSA KIT WT line; assay: β-hexosaminidase release after stimulation; type: cell-based, human; details: cells treated with IL-4 20 ng/ml and IgE 2 μg/ml; anti-IgE 5 μg/ml or calcium ionophore 1 μmol/l, 1 hour
# Protocol: The activation of the cells of the ROSA KIT WT line was also measured by determining the released β-hexosaminidase activity. ROSA cells treated with IL-4 (20 ng/ml) and IgE (2 μg/ml) are subsequently activated for 1 hour at 37° C. in the presence of 5% CO2, with the anti-IgE antibody (5 μg/ml) or with the calcium ionophore (Cai) (1 μmol/l).
# The cells are then centrifuged and the supernatants are recovered and frozen at −80° C. until the time of the assay. The cells are then lysed. The β-hexosaminidase activity is measured in the supernatant and also in the cell pellet as described by Schwartz and Austen, J Invest Dermatol., 74, 349-353, 1980.
# The hydrolysis of p-nitrophenyl-2-acetamido-2-deoxy-β-D-glucopyranoside (or 4-nitrophenyl-N-acetyl-β-D-glucosaminide) by β-hexosaminidase leads to the release of a chromophore product: p-nitrophenol. The latter is measured by spectrophotometry at 405 nm. • 50 μl of p-nitrophenyl-2-acetamido-2-deoxy-β-D-glucopyranoside (Sigma) are added to 5 μl of supernatant • Incubation for 2 hours at 37° C. with stirring. • Addition of 150 μl of stop solution (7.5 g of glycine in 500 ml of H2O, pH=10.7). Reading at 405 nm.
# [2] = test system: cells of the ROSA KIT WT line; assay: Membrane CD203c expression after stimulation (flow cytometry); type: cell-based, human; details: cells treated with IL-4 + IgE 5 days; anti-IgE 5 or 10 μg/ml or calcium ionophore 1 μmol/l, 1 hour
# Protocol: In order to know whether the cells of the ROSA KIT WT line can be activated by the IgE-anti-IgE antibody coupling, resulting in degranulation with immediate release of histamine and of β-hexosaminidase associated with a significant increase in membrane CD203c expression and with delayed release of TNF-alpha, cells are treated with IL-4 (20 ng/ml) and IgE (2 μg/ml) (Merck Bioscience) for 5 days and then stimulated with anti-IgE (5 or 10 μg/ml) (Biovalley) or with the calcium ionophore (Cai) (Sigma) (1 μmol/l) for 1 or 6 hours. The 1 hour supernatant and also the pellet are used to assay the histamine and to measure the expression of CD203c at the cell surface, while the TNF-alpha is measured by a specific ELISA method in the supernatant of the cells after 6 hours of stimulation.
# One ml of cells treated with IL-4 (20 ng/ml) and IgE (2 μg/ml) for 5 days are washed twice with 3 ml of PBS and then again placed in culture medium at a concentration of 1×10^6 cells/ml. These cells are then stimulated with anti-IgE (5 or 10 μg/ml) or with the calcium ionophore (Cai) (1 μmol/l) for 1 hour. The cells are washed with PBS and put back into 100 μl of PBS, 1% FCS in the presence of an antibody directed against human CD203c, coupled to phycoerythrin (PE) (20 μl/l million cells) (Biolegend).
# [3] = in therapy; cited from earlier work
# ROSA KIT WT line = assay: Proliferation of ROSA KIT WT line with tyrosine kinase inhibitors (WST-1); type: cell-based; details: 1 μM/l, 48 hours, medium with human SCF 80 ng/ml, relative to DMSO 0.1%
# Protocol: (§1) Finally, the inventors evaluated the effect of two molecules which inhibit tyrosine kinase activity, imatinib and dasatinib (both supplied by Sequoia Research), on the proliferation of the 3 ROSA KIT WT, ROSA KIT D816V and ROSA KIT Delta 417-419 insY lines. To do this, the cells were seeded at a starting concentration of 3×10^5 cells per ml in 96-well plates (100 μl per well) and incubated at 37° C. in an incubator (5% CO2 in air) for 48 hours in the presence of 1 μM/l of imatinib or of dasatinib (in DMSO brought to a final concentration of 0.1%) or in the presence of DMSO alone (0.1% final concentration) in their usual culture medium (containing human SCF at 80 ng/ml for the ROSA KIT WT line but without SCF for the ROSA KIT D816V and ROSA KIT Delta 417-419 insY lines). At the end of this incubation, 10 μl of WST-1 (Roche Applied Science) are added to each well and the cells are incubated for a further 3 hours in an incubator at 37° C. The number of live cells is then measured for each condition by reading the absorbance at 450 nm using a Multiskan MS plate reader (Thermo LabSystems).
# (§2) The results obtained for each line (presented in FIG. 15) are expressed as % of live cells (the condition DMSO alone at 0.1% final concentration being considered to contain 100% of live cells).
# [4] = test system: ROSA KIT Delta 417-419 insY line; assay: Proliferation of ROSA KIT Delta 417-419 insY line with tyrosine kinase inhibitors (WST-1); type: cell-based, human; details: 1 μM/l, 48 hours, without SCF, relative to DMSO 0.1%
# Protocol: as §1, §2
# ROSA KIT D816V line = assay: Proliferation of ROSA KIT D816V line with tyrosine kinase inhibitors (WST-1); type: cell-based, human; details: 1 μM/l, 48 hours, without SCF, relative to DMSO 0.1%
# Protocol: as §1, §2
# [5] = test system: HMC-1, subclone HMC-1.1 (KIT V560G); details: juxtamembrane KIT V560G mutation; cited from earlier work
# [6] = test system: subclone HMC-1.2 (KIT V560G and D816V); details: two KIT mutations (V560G and D816V); cited from earlier work
# KIT D816V mutation = KIT D816V mutation (Homo sapiens, UniProt P10721, D816V); details: cited from earlier work
# [7] = test system: cells of the ROSA KIT WT line; assay: FcεRI and KIT expression after IL-4 treatment (flow cytometry); type: cell-based, human; details: IL-4 20 ng/ml for 5 days
# Protocol: Since it has been shown in the literature that interleukin-4 (IL-4) induces a decrease in KIT expression and an increase in FcεR1 expression by normal human mast cells, the inventors wanted to verify whether this phenomenon could also be observed on the ROSA KIT WT line. For this, they used the following technique: • 10 ml of cells in culture at approximately 2×10^5 cell/ml are used for each tube. • The cells are centrifuged and the pellet is taken up in 10 ml of new culture medium and then the cells are treated with IL-4 (20 ng/ml) (R&D) for 5 days. • The cells are centrifuged in order to remove the culture medium. • The pellets are taken up in 100 μl of PBS+1% FCS, and incubated for 45 min at +4° C. in the presence of anti-human IgE antibody coupled to FITC (20 μl/l million cells (Merck Bioscience)), or in the presence of anti-human KIT antibody coupled to APC (20 μl/l million cells) (Biolegend). • Two rinses are carried out in 3 ml of PBS, 0.1% FCS, and then the tubes are centrifuged. • The pellets are collected in 300 μl of PBS, 0.1% FCS.
# The reading is carried out by FACS (BD FACSCalibur).
# [8] = test system: ROSA KIT WT, ROSA KIT Delta 417-419 insY and KIT D816V lines; assay: Membrane marker expression in the three ROSA lines (flow cytometry); type: cell-based, human; details: IL-4 20 ng/ml
# From the text: Moreover, the expression of certain membrane markers present on the cells of the ROSA KIT Delta 417-419 insY and KIT D816V lines, optionally present in the presence of SCF, was studied by flow cytometry, this expression being compared with that of the cells of the ROSA KIT WT line. The results obtained (presented in FIG. 12) were the following: • the cells of the ROSA KIT Delta 417-419 insY and KIT D816V lines spontaneously express (in the absence of SCF) more CD38, CD203c and KIT than the cells of the ROSA KIT WT line, this increase in expression being completely abolished in the presence of SCF, • the cells of the KIT D816V line express more CD54 than the cells of the other two lines, whether in the absence or in the presence of SCF, • the cells of the KIT D816V line express more FcεR1 than the cells of the other two lines in the absence of SCF, this phenomenon being abolished by adding SCF, • the cells of the ROSA KIT Delta 417-419 insY and KIT D816V lines express, in the presence of SCF, more CD63 than the cells of the ROSA KIT WT line, this increase in expression being completely abolished in the absence of SCF, • the expression of CD53 and of FcεR1 is increased in the 3 lines by treatment with IL-4 (20 ng/ml), and • the expression of KIT is decreased in the three lines by treatment with IL-4 (20 ng/ml).
# Sequence of KIT D816V mutation (P10721 26-976 D816V): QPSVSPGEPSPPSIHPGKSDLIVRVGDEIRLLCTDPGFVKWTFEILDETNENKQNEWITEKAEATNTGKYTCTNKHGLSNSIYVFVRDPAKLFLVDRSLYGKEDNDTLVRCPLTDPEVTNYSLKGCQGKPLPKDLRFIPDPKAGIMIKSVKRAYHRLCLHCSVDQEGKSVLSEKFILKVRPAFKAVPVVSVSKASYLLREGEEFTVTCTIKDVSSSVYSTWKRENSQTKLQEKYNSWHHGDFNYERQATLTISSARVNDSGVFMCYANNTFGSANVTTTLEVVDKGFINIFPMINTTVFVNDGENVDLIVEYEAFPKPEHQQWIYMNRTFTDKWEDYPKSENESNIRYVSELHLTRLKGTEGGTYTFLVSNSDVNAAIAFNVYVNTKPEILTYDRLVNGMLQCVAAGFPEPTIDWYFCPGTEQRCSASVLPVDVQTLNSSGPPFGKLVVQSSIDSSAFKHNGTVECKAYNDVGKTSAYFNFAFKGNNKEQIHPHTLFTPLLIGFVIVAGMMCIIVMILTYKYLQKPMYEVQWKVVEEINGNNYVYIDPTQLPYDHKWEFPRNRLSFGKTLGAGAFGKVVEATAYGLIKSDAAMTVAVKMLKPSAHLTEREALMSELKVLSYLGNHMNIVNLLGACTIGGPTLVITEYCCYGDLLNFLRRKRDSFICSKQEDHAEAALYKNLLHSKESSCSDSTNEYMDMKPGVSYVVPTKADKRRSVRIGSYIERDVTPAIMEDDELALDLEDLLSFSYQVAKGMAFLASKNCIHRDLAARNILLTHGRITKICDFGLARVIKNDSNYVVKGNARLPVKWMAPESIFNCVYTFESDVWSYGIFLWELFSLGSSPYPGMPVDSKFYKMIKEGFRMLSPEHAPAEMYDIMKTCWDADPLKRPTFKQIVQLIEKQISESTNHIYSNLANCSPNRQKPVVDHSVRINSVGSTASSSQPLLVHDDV
compound,measurement,setting,value
"CNc1ccc2oc(C[C@H]3O[C@@]4(CC[C@H]3C)O[C@H]([C@H](C)C(=O)c3ccc[nH]3)[C@H](C)C[C@H]4C)nc2c1C(=O)O [calcium ionophore, calcium ionophore A23187]","β-hexosaminidase release, of the total enzyme content of the cells",[1],up to 80%
same,membrane CD203c expression,[2],increase
Cc1nc(Nc2ncc(C(=O)Nc3c(C)cccc3Cl)s2)cc(N2CCN(CCO)CC2)n1 [dasatinib],toxicity in humans,[3],high toxicity
Cc1ccc(NC(=O)c2ccc(CN3CCN(C)CC3)cc2)cc1Nc1nccc(-c2cccnc2)n1 [imatinib],inhibition of proliferation (% of live cells),ROSA KIT WT line,sensitive
same,inhibition of proliferation (% of live cells),[4],sensitivity
same,inhibition of proliferation (% of live cells),[4]; listed as Imatinib,sensitive
same,inhibition of proliferation (% of live cells),ROSA KIT D816V line,resistance; also recorded: incapable of inhibiting the proliferation
same,sensitivity of the line,[5],sensitive
same,sensitivity of the line,[6],not
same,activity on the KIT D816V mutation,KIT D816V mutation,completely inactive
IL-4: interleukin-4 cytokine (R&D),KIT expression,[7],decrease
same,expression of the high-affinity IgE receptor,[7],increase
same,expression of CD53,[8]; in the 3 lines,increased
same,expression of FcεR1,[8]; in the 3 lines,increased
same,expression of KIT,[8]; in the three lines,decreased
